Consider six molecules from patent US11491192B2, “Treatment and prevention of pathogenic bacterial overgrowth using butyrate-producing bacteria” (THE CLEVELAND CLINIC FOUNDATION, priority 2018, dated 2022).

The subject of one test is F. prausnitzii. Nature of the test: Brucella broth dilution MIC of common antibiotics. The test is classed as cell-based, Faecalibacterium prausnitzii. The settings on record: unit assumed. As for the experimental part: This strain was chosen because it was isolated from human feces, and based on its ability to hydrolyze PS, yield butyrate, and utilize lactate. Belenguer et al., Applied Environmental Microbiology, 72:3593-3599 (2006) Bacteria was grown in conditions and medium as recommended by ATCC, briefly at 37° C. in anaerobic gas biological mix of 80% nitrogen, 10% carbon dioxide, 10% hydrogen, ATCC pre-reduced chopped meat broth (ATCC 1703). Overnight culture of FP was lyophilized on […] system and reconstituted in pre-reduced sterile phosphate buffered saline (PBS) just prior to treatment. Brucella broth dilution MIC of common antibiotics for FP and CD strains were determined using standard methods for susceptibility testing of anaerobic bacteria (Table 1).
(In broth dilution the organism is exposed to a series of concentrations in liquid medium.)

The next test has as its system C. difficile. Nature of the test: Brucella broth dilution MIC of common antibiotics. The test is classed as cell-based, Clostridium difficile. The note with it: unit assumed.
Test [1] has as its system sodium-coupled butyrate transporter, butyrate receptor, tight junction proteins and NHE3. The note with it: supplementation during broad spectrum antibiotic treatment in mice; Cresci et al. 2013; cited from earlier work.
[2] abbreviates: Brucella broth dilution, FP strain used in this study (ATCC 27766).
The mark [3] stands for this setting: Brucella broth dilution, CD strain used in this study (VA17).

For the molecule Piperacillin/Tazaba, the F. prausnitzii MIC with F. prausnitzii (setting [2]) was determined as 8 µg/mL. Moreover, the C. difficile MIC in the test on C. difficile (setting [3]) stood at 15.6 µg/mL.

In the case of `CCC[C@@H]1C[C@@H](C(=O)N[C@@H]([C@H]2O[C@H](SC)[C@H](O)[C@@H](O)[C@H]2O)[C@H](C)Cl)N(C)C1` [Clindamycin], in the test with C. difficile (setting [3]), the C. difficile MIC was determined as 500 µg/mL.

On to `Cc1ncc([N+](=O)[O-])n1CCO` [Metronidazole], for which the F. prausnitzii MIC in the test on F. prausnitzii (setting [2]) is less than 2 µg/mL. Also, the C. difficile MIC in the test on C. difficile (setting [3]) is less than 2 µg/mL. Regarding `CO[C@@]1(NC(=O)Cc2cccs2)C(=O)N2C(C(=O)O)=C(COC(N)=O)CS[C@@H]21` [Cefoxitin], the F. prausnitzii MIC in the test on F. prausnitzii (setting [2]) is less than 2 µg/mL. Besides, in the test with C. difficile (setting [3]), the C. difficile MIC was determined as 250 µg/mL. `CN[C@H](CC(C)C)C(=O)N[C@H]1C(=O)N[C@@H](CC(N)=O)C(=O)N[C@H]2C(=O)N[C@H]3C(=O)N[C@H](C(=O)N[C@H](C(=O)O)c4cc(O)cc(O)c4-c4cc3ccc4O)[C@H](O)c3ccc(c(Cl)c3)Oc3cc2cc(c3O[C@@H]2O[C@H](CO)[C@@H](O)[C@H](O)[C@H]2O[C@H]2C[C@](C)(N)[C@H](O)[C@H](C)O2)Oc2ccc(cc2Cl)[C@H]1O` [Vancomycin]: the F. prausnitzii MIC with F. prausnitzii was less than 2 µg/mL. Also, the C. difficile MIC in the test on C. difficile was less than 2 µg/mL. On to `CCCC(=O)OCC(COC(=O)CCC)OC(=O)CCC` [tributyrin], for which the “intestinal losses of sodium-coupled butyrate transporter, butyrate receptor, tight junction proteins and NHE3” value in test [1] was “protects against intestinal losses”.
